Measurements taken from publication PMC10388636 (Nature structural & molecular biology, 2022).

Columns and labels:
[1] = biological target: SARS-CoV-2 nsp14/nsp10 complex (Severe acute respiratory syndrome coronavirus 2, UniProt P0DTD1); experiment: ITC binding to full-length nsp14/nsp10 complex
[2] = biological target: TEL-MTase fusion (nsp14 N7-MTase-TELSAM) (Severe acute respiratory syndrome coronavirus 2, UniProt P0DTD1); experiment: ITC binding to TEL-MTase fusion; set-up: species or system SARS-CoV-2
[3] = biological target: SARS-CoV-2 MTase domain (residues 289–527) (Severe acute respiratory syndrome coronavirus 2, UniProt P0DTD1); experiment: ITC binding to isolated MTase domain

| SMILES | Kd [1] [µM] | Kd [2] [µM] | Kd [3] [µM] |
| --- | --- | --- | --- |
| Nc1ncnc2c1ncn2[C@@H]1O[C@H](CSCC[C@H](N)C(=O)O)[C@@H](O)[C@H]1O [SAH, S-adenosylhomocysteine] | 0.3 | 5 | – |
| C[S+](CC[C@H](N)C(=O)[O-])C[C@H]1O[C@@H](n2cnc3c(N)ncnc32)[C@H](O)[C@@H]1O (stereo partly shown) [SAM, S-adenosylmethionine] | 5.7 | – | 22 to 25 |
